In brackets after ≈: the same amount, converted by molar mass. Peptide text beside a SMILES is read from it.
Assays:
[1] = test system: Acinetobacter baumannii_isolate 10 (antibiotic-resistant); type: cell-based, Acinetobacter baumannii; details: isolate 10 (antibiotic-resistant)
Outline: (§1)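 Each isolate is cultured to mid-log phase, then diluted to 2×10^4 cells/100 μL. Serial 2-fold peptide dilutions are added and plates are incubated 18 hours at 37° C. Growth is read at 600 nm to assign the MIC.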

[2] = test system: Acinetobacter baumannii_isolate 14 (antibiotic-resistant); type: cell-based, Acinetobacter baumannii; details: isolate 14 (antibiotic-resistant)
Outline: as §1

[3] = test system: Acinetobacter baumannii_isolate 17 (antibiotic-resistant); type: cell-based, Acinetobacter baumannii; details: isolate 17 (antibiotic-resistant)
Outline: as §1

[4] = test system: Acinetobacter baumannii_isolate 6 (antibiotic-resistant); type: cell-based, Acinetobacter baumannii; details: isolate 6 (antibiotic-resistant)
Outline: as §1

[5] = test system: Acinetobacter baumannii_isolate 9 (antibiotic-resistant); type: cell-based, Acinetobacter baumannii; details: isolate 9 (antibiotic-resistant)
Outline: as §1

[6] = test system: Acinetobacter baumannii_isolate11 (antibiotic-resistant); type: cell-based, Acinetobacter baumannii; details: isolate11 (antibiotic-resistant)
Outline: as §1

[7] = test system: Acinetobacter baumannii_isolate20 (antibiotic-resistant); type: cell-based, Acinetobacter baumannii; details: isolate20 (antibiotic-resistant)
Outline: as §1

[8] = test system: Acinetobacter baumannii KCTC 2508; type: cell-based; details: KCTC 2508, 24 h
Procedure: (§2) Specifically, among the bacterial strains listed in Table 2, those known to form biofilms well (Acinetobacter baumannii KCTC 2508, Acinetobacter baumannii isolate 10, and isolate 14) were cultured in the appropriate media to the mid-log phase and diluted to a cell concentration of 5×10^4 cells/100 µL, followed by inoculation into microplates (SPL). Subsequently, the peptides prepared in <Example 1> were serially 10-fold diluted with 10 mM sodium phosphate buffer (pH 7.2), and 10 μL of each dilution was added to each well. The plates were then incubated at 37° C. for 24 hours. After completely removing the supernatant, the plates were fixed with 100% methanol for 15 minutes, stained with crystal violet staining solution for 1 hour, washed three times, and then the stain was solubilized with 95% ethanol. Absorbance was measured at 595 nm using a microplate reader to determine the MBIC values for each bacterial strain.

[9] = test system: Acinetobacter baumannii_isolate 10; type: cell-based, Acinetobacter baumannii; details: isolate 10, 24 h
Procedure: as §2

[10] = test system: Acinetobacter baumannii_isolate 14; type: cell-based, Acinetobacter baumannii; details: isolate 14, 24 h
Procedure: as §2

[11] = test system: Acinetobacter baumannii membrane; assay: Flow cytometry, propidium iodide, action on bacterial membrane; type: cell-based; details: peptide at twice the MIC, 37° C. 10 minutes
Procedure: To determine whether the peptides prepared in <Example 1> act on bacterial membranes, the parent peptide and the novel peptides dCATH-A1, dCATH-A2, dCATH-A3, dCATH-A4, dCATH-A5, dCATH-A6, and dCATH-A7 were analyzed using flow cytometry.
Specifically, Acinetobacter baumannii was treated with each peptide at twice the minimum inhibitory concentration (MIC), followed by incubation at 37° C. for 10 minutes. The supernatant was then removed by centrifugation at 10,000 rpm, and the bacterial cells were stained with propidium iodide (PI) at a concentration of 10 μg/mL at 4° C. for 30 minutes. Unbound PI was removed by centrifugation, and 1 mL of phosphate-buffered saline (PBS) was added to disperse any cell clumps. The effect of the peptides on the bacterial membrane was then assessed using a Beckman flow cytometer.

plasmid DNA (pRSETB) = assay: Binding to bacterial DNA, agarose gel electrophoresis; details: 260 ng plasmid DNA, DNA/peptide ratios 1:1 to 1:4, 37° C. 10 minutes
Procedure: Accordingly, to further elucidate the mechanism by which these novel peptides exert antimicrobial activity, it was examined whether the novel peptides dCATH-A6 and dCATH-A7 bind to intracellular bacterial DNA using electrophoresis.
Specifically, 260 ng of plasmid DNA (pRSETB) was reacted with each peptide at various ratios (lanes 1 through […] represent DNA only, 1:1, 1:2, 1:3, and 1:4 DNA/peptide ratios, respectively) at 37° C. for 10 minutes. The samples were then subjected to electrophoresis on a 1% agarose gel, stained with ethidium bromide (EtBr), and visualized under UV light.

`CC[C@H](C)[C@H](NC(=O)[C@H](C)NC(=O)[C@H](CC(C)C)NC(=O)[C@@H]1CCCN1C(=O)[C@@H](NC(=O)[C@H](CC(C)C)NC(=O)[C@H](CCC(N)=O)NC(=O)[C@H](C)NC(=O)[C@H](Cc1ccccc1)NC(=O)[C@H](CCCNC(=N)N)NC(=O)[C@@H](N)CCCCN)C(C)C)C(=O)N[C@@H](CCCCN)C(=O)N[C@H](C(=O)N[C@@H](Cc1ccc(O)cc1)C(=O)N[C@@H](CCCNC(=N)N)C(=O)N[C@@H](C)C(=O)N[C@@H](Cc1c[nH]c2ccccc12)C(=O)N[C@@H](CCCCN)C(=O)N[C@@H](CCCNC(=N)N)C(=O)N[C@@H](CCCNC(=N)N)C(N)=O)[C@@H](C)CC` [dCATH-A2] (H-KRFAQLVPLAIKIYRAWKRR-NH2; N-terminus assumed) showed an MIC [1] of 2 µM (≈ 5.03 µg/mL), an MIC [2] of 1 µM (≈ 2.51 µg/mL) and an MIC [3] of 1 µM (≈ 2.51 µg/mL). For the same compound, the MIC [4] was 2 µM (≈ 5.03 µg/mL), the MIC [5] was 2 µM (≈ 5.03 µg/mL) and the MIC [6] was 1 µM (≈ 2.51 µg/mL). It also gave an MIC [7] of 1 µM (≈ 2.51 µg/mL), an MBIC [8] of 4 µM and an MBIC [9] of 2 µM. The MBIC [10] was 2 µM.
`CC[C@H](C)[C@H](NC(=O)[C@H](C)NC(=O)[C@H](CCCCN)NC(=O)[C@H](CCCCN)NC(=O)[C@@H](NC(=O)[C@H](CC(C)C)NC(=O)[C@H](CCC(N)=O)NC(=O)[C@H](C)NC(=O)[C@H](C)NC(=O)[C@H](CCCNC(=N)N)NC(=O)[C@@H](N)CCCCN)C(C)C)C(=O)N[C@@H](CCCCN)C(=O)N[C@H](C(=O)N[C@@H](Cc1ccc(O)cc1)C(=O)N[C@@H](CCCNC(=N)N)C(=O)N[C@@H](C)C(=O)N[C@@H](Cc1c[nH]c2ccccc12)C(=O)N[C@@H](CCCCN)C(=O)N[C@@H](CCCNC(=N)N)C(=O)N[C@@H](CCCNC(=N)N)C(N)=O)[C@@H](C)CC` [dCATH-A5] (H-KRAAQLVKKAIKIYRAWKRR-NH2; N-terminus assumed) gave an MIC [1] of 1 µM (≈ 2.48 µg/mL), an MIC [2] of 1 µM (≈ 2.48 µg/mL) and an MIC [3] of 1 µM (≈ 2.48 µg/mL). It also gave an MIC [4] of 1 µM (≈ 2.48 µg/mL), an MIC [5] of 1 µM (≈ 2.48 µg/mL) and an MIC [6] of 1 µM (≈ 2.48 µg/mL). It also gave an MIC [7] of 1 µM (≈ 2.48 µg/mL), an MBIC [8] of 2 µM and an MBIC [9] of 2 µM. The MBIC [10] was 1 µM.
`CC[C@H](C)[C@H](NC(=O)[C@H](C)NC(=O)[C@H](CC(C)C)NC(=O)[C@@H]1CCCN1C(=O)[C@@H](NC(=O)[C@H](CC(C)C)NC(=O)[C@H](CCC(N)=O)NC(=O)[C@H](C)NC(=O)[C@H](C)NC(=O)[C@H](CCCNC(=N)N)NC(=O)[C@@H](N)CCCCN)C(C)C)C(=O)N[C@@H](CCCCN)C(=O)N[C@H](C(=O)N[C@@H](Cc1ccc(O)cc1)C(=O)N[C@@H](CCCNC(=N)N)C(=O)N[C@@H](C)C(=O)N[C@@H](Cc1c[nH]c2ccccc12)C(=O)N[C@@H](CCCCN)C(=O)N[C@@H](CCCNC(=N)N)C(=O)N[C@@H](CCCNC(=N)N)C(N)=O)[C@@H](C)CC` [dCATH-A3] (H-KRAAQLVPLAIKIYRAWKRR-NH2; N-terminus assumed) showed an MIC [1] of 2 µM (≈ 4.87 µg/mL), an MIC [2] of 2 µM (≈ 4.87 µg/mL) and an MIC [3] of 1 µM (≈ 2.44 µg/mL). It also gave an MIC [4] of 2 µM (≈ 4.87 µg/mL), an MIC [5] of 1 µM (≈ 2.44 µg/mL) and an MIC [6] of 1 µM (≈ 2.44 µg/mL). For the same compound, the MIC [7] was 1 µM (≈ 2.44 µg/mL), the MBIC [8] was 2 µM and the MBIC [9] was 2 µM. It also gave an MBIC [10] of 1 µM.
With `CC[C@H](C)[C@H](NC(=O)[C@H](C)NC(=O)[C@H](CC(C)C)NC(=O)[C@@H]1CCCN1C(=O)[C@@H](NC(=O)[C@H](CC(C)C)NC(=O)[C@H](CCC(N)=O)NC(=O)[C@H](Cc1c[nH]c2ccccc12)NC(=O)[C@H](Cc1ccccc1)NC(=O)[C@H](CCCNC(=N)N)NC(=O)[C@@H](N)CCCCN)C(C)C)C(=O)N[C@@H](CCCCN)C(=O)N[C@H](C(=O)N[C@@H](Cc1ccc(O)cc1)C(=O)N[C@@H](CCCNC(=N)N)C(=O)N[C@@H](C)C(=O)N[C@@H](Cc1c[nH]c2ccccc12)C(=O)N[C@@H](CCCCN)C(=O)N[C@@H](CCCNC(=N)N)C(=O)N[C@@H](CCCNC(=N)N)C(N)=O)[C@@H](C)CC` [dCATH, reference compound] (H-KRFWQLVPLAIKIYRAWKRR-NH2; N-terminus assumed) the MIC [1] was 2 µM (≈ 5.26 µg/mL), the MIC [2] was 2 µM (≈ 5.26 µg/mL) and the MIC [3] was 2 µM (≈ 5.26 µg/mL). It also gave an MIC [4] of 4 µM (≈ 10.5 µg/mL), an MIC [5] of 2 µM (≈ 5.26 µg/mL) and an MIC [6] of 2 µM (≈ 5.26 µg/mL). For the same compound, the MIC [7] was 2 µM (≈ 5.26 µg/mL), the MBIC [8] was 4 µM and the MBIC [9] was 4 µM. The MBIC [10] was 4 µM, the “membrane damage in Acinetobacter baumannii (shift in PI fluorescence signal)” value [11] was “induced membrane damage” and the “binding to DNA (electrophoresis)” value (plasmid DNA (pRSETB)) was “no detectable binding to DNA”.
Work on `CC[C@H](C)[C@H](NC(=O)[C@H](C)NC(=O)[C@H](CC(C)C)NC(=O)[C@@H]1CCCN1C(=O)[C@@H](NC(=O)[C@H](CC(C)C)NC(=O)[C@H](CCC(N)=O)NC(=O)[C@H](Cc1c[nH]c2ccccc12)NC(=O)[C@H](C)NC(=O)[C@H](CCCNC(=N)N)NC(=O)[C@@H](N)CCCCN)C(C)C)C(=O)N[C@@H](CCCCN)C(=O)N[C@H](C(=O)N[C@@H](Cc1ccc(O)cc1)C(=O)N[C@@H](CCCNC(=N)N)C(=O)N[C@@H](C)C(=O)N[C@@H](Cc1c[nH]c2ccccc12)C(=O)N[C@@H](CCCCN)C(=O)N[C@@H](CCCNC(=N)N)C(=O)N[C@@H](CCCNC(=N)N)C(N)=O)[C@@H](C)CC` [dCATH-A1] (H-KRAWQLVPLAIKIYRAWKRR-NH2; N-terminus assumed) yielded an MIC [1] of 2 µM (≈ 5.1 µg/mL), an MIC [2] of 2 µM (≈ 5.1 µg/mL) and an MIC [3] of 1 µM (≈ 2.55 µg/mL). For the same compound, the MIC [4] was 2 µM (≈ 5.1 µg/mL), the MIC [5] was 2 µM (≈ 5.1 µg/mL) and the MIC [6] was 2 µM (≈ 5.1 µg/mL). For the same compound, the MIC [7] was 1 µM (≈ 2.55 µg/mL), the MBIC [8] was 4 µM and the MBIC [9] was 4 µM. It also gave an MBIC [10] of 2 µM.
`CC[C@H](C)[C@H](NC(=O)[C@H](C)NC(=O)[C@H](CC(C)C)NC(=O)[C@H](CCCCN)NC(=O)[C@@H](NC(=O)[C@H](CC(C)C)NC(=O)[C@H](CCC(N)=O)NC(=O)[C@H](C)NC(=O)[C@H](C)NC(=O)[C@H](CCCNC(=N)N)NC(=O)[C@@H](N)CCCCN)C(C)C)C(=O)N[C@@H](CCCCN)C(=O)N[C@H](C(=O)N[C@@H](Cc1ccc(O)cc1)C(=O)N[C@@H](CCCNC(=N)N)C(=O)N[C@@H](C)C(=O)N[C@@H](Cc1c[nH]c2ccccc12)C(=O)N[C@@H](CCCCN)C(=O)N[C@@H](CCCNC(=N)N)C(=O)N[C@@H](CCCNC(=N)N)C(N)=O)[C@@H](C)CC` [dCATH-A4] (H-KRAAQLVKLAIKIYRAWKRR-NH2; N-terminus assumed) gave an MIC [1] of 4 µM (≈ 9.87 µg/mL), an MIC [2] of 2 µM (≈ 4.94 µg/mL) and an MIC [3] of 2 µM (≈ 4.94 µg/mL). It also gave an MIC [4] of 1 µM (≈ 2.47 µg/mL), an MIC [5] of 2 µM (≈ 4.94 µg/mL) and an MIC [6] of 2 µM (≈ 4.94 µg/mL). The MIC [7] was 2 µM (≈ 4.94 µg/mL), the MBIC [8] was 4 µM and the MBIC [9] was 4 µM. It also gave an MBIC [10] of 4 µM.
